One test relates to A2780 cells. In words: In vitro proliferation suppression test (CellTiter-Glo). Format: cell-based, human. As to conditions: Homo sapiens, 72 h, A2780 cell proliferation inhibitory rate at 1 μM test compound, three days. The method in brief:
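A2780 cells in RPMI1640 with 10% FBS were exposed to 1 μM compound for three days at 37° C, 5% CO2. CellTiter-Glo luminescence read; inhibition (%) calculated relative to wells without compound.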
(Cellular ATP, detected with luciferase, serves as a proxy for viable cell number.)

Test [1] concerns the target T1, CDK12/CycK complex (Homo sapiens, UniProt Q9NYV4). In words: Measurement of CDK12 inhibitory activity by binding assay (BODIPY-FL labeled AT-7519 high concentration conditions, 1320 nM). As to conditions: inhibitory rate against CDK12 at 1 μM test compound, 1320 nM BODIPY-FL-labeled AT-7519, 8 nM CDK12/CycK. The method in brief:
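His-tagged CDK12/CycK (8 nM) was incubated with test compound, BODIPY-FL-AT-7519 tracer (1320 nM), Tb-streptavidin (0.2 nM) and biotin-anti-His antibody (0.4 nM) for 120 min at room temperature. TR-FRET ratio (BODIPY-FL/Tb) gave % inhibition versus no-compound control and 30 μM AT-7519 blank; compounds tested at 1 μM.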

Test [2] relates to Human breast cancer cells SUM149PT. In words: Antitumor action on SUM149PT cells tumor-bearing model. Conditions: 60 mg/kg orally two times per day for 2 weeks; SUM149PT subcutaneous transplant in BALB/cAJcl-nu/nu mice; average tumor volume increase ratio vs control group. Format: in vivo. Here is the method:
Experimental Example 6: Antitumor Action on SUM149PT CELLS Tumor-Bearing Model
Human breast cancer cells SUM149PT were suspended in a solution of Matrigel (BD BIOSCIENCES):HBSS (Thermo Fisher Scientific)=1:1, and subcutaneously transplanted at 3×10^6 cells to the abdomen of BALB/cAJcl-nu/nu (CLEA Japan, Inc.). The tumor diameter of the engrafted tumor was measured and the tumor volume was calculated by the following formula. Tumor volume=major axis×minor axis×minor axis×(1/2)
Individuals having a tumor grown to a volume of about 120 mm^3 were selected, and 5 mice per group were used for the experiment. A suspension of the test compound in 0.5% methylcellulose solution (FUJIFILM Wako Pure Chemical Corporation) was orally administered at a dose of 60 mg/kg (10 mL/kg) two times per day for 2 weeks. The tumor volume was measured over time one day before the start of the administration, and every 4 days from day 3. The next day of the completion of medication for 14 days, the tumor diameter was finally measured and the tumor volume was calculated. The tumor proliferation rate of the test compound administration group in comparison with the control administration group was taken as an average tumor volume increase ratio T/C and calculated by the following formula. […]

Another test concerns the target CDK12/CycK enzyme (Homo sapiens, UniProt Q9NYV4). In words: Measurement of CDK12/CycK inhibitory activity (ULight-4E-BP1 peptide phosphorylation, LANCE). Format: biochemical. As to conditions: inhibitory rate against CDK12/CycK at 1 μM test compound, ATP 10 μM or 500 μM. Here is the method:
Experimental Example 2: Measurement of CDK12/CycK Inhibitory Activity
A test compound dissolved in DMSO was added to a reaction solution (50 mM HEPES (pH 7.5), 10 mM MgCl2, 1 mM DTT, 0.01% Tween 20, 0.01% BSA) containing CDK12/CycK enzyme and ULight-labeled eIF4E-binding protein 1 (4E-BP1) (Thr37/Thr46) peptide (PerkinElmer), and the mixture was reacted at room temperature for 60 min. […] was added to give an ATP solution with a final concentration of 10 μM or 500 μM to start the enzyme reaction, and the mixture was reacted at room temperature for 60 min. A LANCE Detection buffer (PerkinElmer) containing europium-labeled anti-phosphorylation 4E-BP1 (Thr37/Thr46) antibody (PerkinElmer) and EDTA (final concentration 10 mM) was added to discontinue the reaction. After standing for 60 min, time decomposition fluorescence value (excitation 320 nm, emission 615 nm, 665 nm) was measured by Envision (PerkinElmer). The inhibitory rate (%) of the test compound against CDK12/CyclinK was calculated by the following formula. Inhibitory rate (%)=(1−(count of test compound−blank)÷(control−blank))×100
The count of the CDK12 enzyme reaction mixture under compound non-addition conditions is indicated as control, and the count under compound non-addition and CDK12/CycK enzyme non-addition conditions is indicated as blank.
The results measured by the above-mentioned method (inhibitory rate (%) of the signal value at 1 μM test compound relative to control is shown below.
(TR-FRET usually uses a lanthanide donor and a delayed reading to cut background.)

The target of test [3] is T1, CDK12/CycK complex. The test is described as follows: Measurement of CDK12 inhibitory activity by binding assay (TR-FRET, 66 nM BODIPY-FL-labeled AT-7519). Conditions: inhibitory rate against CDK12 at 1 μM test compound, 66 nM BODIPY-FL-labeled AT-7519, 2 nM CDK12/CycK. The method in brief: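 His-tagged CDK12/CycK (2 nM) premixed with 66 nM BODIPY-FL-AT-7519 tracer, 0.2 nM Tb-streptavidin and 0.4 nM biotin-anti-His, then incubated with compound 120 min at room temperature. Tracer displacement read as BODIPY-FL/Tb TR-FRET ratio; percent inhibition normalized to no-compound control and 3 μM AT-7519 blank.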

The test system of test [4] is A2780 intracellular CTD pSer2. The test is described as follows: CTD pSer2 measurement using human ovarian cancer cell A2780 and In-Cell Western method. Format: cell-based. As to conditions: inhibitory rate against A2780 intracellular CTD pSer2 at 1 μM test compound, 4 hr. Here is the method: Experimental Example 3: CTD pSer2 Measurement Using Human Ovarian Cancer Cell A2780 and In-Cell Western Method
A2780 cells (ATCC) were seeded in a 96 well plate at 1.8×10^4 cells/well, and the cells were cultured overnight in a cell culture medium RPMI1640 (FUJIFILM Wako Pure Chemical Corporation) containing 10% FBS (fetal bovine serum) and 1% penicillin/streptomycin. A test compound dissolved in a cell medium was added, and the mixture was stood for 4 hr in a CO2 incubator (37° C.). The cells were fixed with ALTFiX (Falma) for 30 min, and washed 3 times with a washing buffer (20 mM Tris-HCl (pH 7.5), 500 mM NaCl, 0.1% Tween20). 0.1% Triton-X-100 diluted with PBS(−) was added and the mixture was incubated at room temperature for 15 min. Thereafter, a blocking buffer (LI-COR) was added, and the mixture was incubated at room temperature for 1 hr. An anti-CTD pS2 antibody (Abcam) suspended in an antibody diluent (blocking buffer: PBS(−)-diluted 0.1% Tween20=1:1) was added, and the mixture was incubated at room temperature for 1 hr. The mixture was […] with a washing buffer, IRDye800CW-labeled anti-goat antibody (LI-COR) was added, and the mixture was incubated at room temperature for 1 hr. The mixture was washed 3 times with a washing buffer, and the fluorescence wavelength at 800 nm was measured by Aerius (LI-COR).
The inhibitory rate (%) of the test compound against A2780 intracellular CTD pSer2 was calculated by the following formula. Inhibitory rate (%)=(1−(count of test compound−blank)÷(control−blank))×100
The count of the A2780 cell under compound non-addition conditions is indicated as control, and the count under compound non-addition and primary antibody non-addition conditions is indicated as blank.
The results measured by the above-mentioned method (inhibitory rate of the signal value at 1 μM test compound relative to control) are shown below.

Experimental findings from US11584737B2, “Heterocyclic compound” (TAKEDA PHARMACEUTICAL COMPANY LIMITED, priority 2018, dated 2023) are described below.

T1 sequence (Q9NYV4 whole entry, species assumed): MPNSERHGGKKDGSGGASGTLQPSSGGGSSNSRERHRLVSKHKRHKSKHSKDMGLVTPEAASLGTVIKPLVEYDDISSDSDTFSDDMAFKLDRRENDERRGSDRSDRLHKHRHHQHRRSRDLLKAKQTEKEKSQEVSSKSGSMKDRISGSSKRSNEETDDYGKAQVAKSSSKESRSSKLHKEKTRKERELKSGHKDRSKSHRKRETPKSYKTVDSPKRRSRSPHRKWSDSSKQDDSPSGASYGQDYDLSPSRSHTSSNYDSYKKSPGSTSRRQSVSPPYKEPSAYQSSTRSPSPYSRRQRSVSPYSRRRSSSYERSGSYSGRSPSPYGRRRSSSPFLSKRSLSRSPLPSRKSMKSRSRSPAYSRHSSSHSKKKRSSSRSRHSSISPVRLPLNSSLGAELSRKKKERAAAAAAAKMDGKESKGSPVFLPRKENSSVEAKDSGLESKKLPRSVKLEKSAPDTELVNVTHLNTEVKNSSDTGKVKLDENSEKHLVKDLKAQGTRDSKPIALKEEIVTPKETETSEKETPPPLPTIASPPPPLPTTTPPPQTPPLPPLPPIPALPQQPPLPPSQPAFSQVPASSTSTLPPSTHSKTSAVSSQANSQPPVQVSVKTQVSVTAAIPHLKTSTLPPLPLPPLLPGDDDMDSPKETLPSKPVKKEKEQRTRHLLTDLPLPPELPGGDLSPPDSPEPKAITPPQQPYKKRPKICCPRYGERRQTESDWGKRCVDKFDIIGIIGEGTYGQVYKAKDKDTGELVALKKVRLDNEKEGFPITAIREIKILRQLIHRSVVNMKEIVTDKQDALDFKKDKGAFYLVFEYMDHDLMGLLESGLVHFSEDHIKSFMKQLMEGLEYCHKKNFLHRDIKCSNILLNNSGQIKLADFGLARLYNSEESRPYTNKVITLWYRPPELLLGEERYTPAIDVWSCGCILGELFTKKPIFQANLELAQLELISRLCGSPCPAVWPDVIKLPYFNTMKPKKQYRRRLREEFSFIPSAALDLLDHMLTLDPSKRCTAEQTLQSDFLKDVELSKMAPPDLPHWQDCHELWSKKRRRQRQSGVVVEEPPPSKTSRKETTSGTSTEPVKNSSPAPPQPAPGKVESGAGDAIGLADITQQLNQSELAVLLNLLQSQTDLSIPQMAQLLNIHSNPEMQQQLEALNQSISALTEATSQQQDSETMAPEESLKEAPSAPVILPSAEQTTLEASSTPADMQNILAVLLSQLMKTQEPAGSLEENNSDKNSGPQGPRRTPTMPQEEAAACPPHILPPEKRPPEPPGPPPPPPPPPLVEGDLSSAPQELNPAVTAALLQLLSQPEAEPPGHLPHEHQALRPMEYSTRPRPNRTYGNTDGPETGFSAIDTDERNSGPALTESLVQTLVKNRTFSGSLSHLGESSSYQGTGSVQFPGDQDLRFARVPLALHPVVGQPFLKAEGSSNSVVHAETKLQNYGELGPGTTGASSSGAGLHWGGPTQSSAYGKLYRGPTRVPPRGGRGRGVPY
T1 sequence (O75909 whole entry partner, species assumed): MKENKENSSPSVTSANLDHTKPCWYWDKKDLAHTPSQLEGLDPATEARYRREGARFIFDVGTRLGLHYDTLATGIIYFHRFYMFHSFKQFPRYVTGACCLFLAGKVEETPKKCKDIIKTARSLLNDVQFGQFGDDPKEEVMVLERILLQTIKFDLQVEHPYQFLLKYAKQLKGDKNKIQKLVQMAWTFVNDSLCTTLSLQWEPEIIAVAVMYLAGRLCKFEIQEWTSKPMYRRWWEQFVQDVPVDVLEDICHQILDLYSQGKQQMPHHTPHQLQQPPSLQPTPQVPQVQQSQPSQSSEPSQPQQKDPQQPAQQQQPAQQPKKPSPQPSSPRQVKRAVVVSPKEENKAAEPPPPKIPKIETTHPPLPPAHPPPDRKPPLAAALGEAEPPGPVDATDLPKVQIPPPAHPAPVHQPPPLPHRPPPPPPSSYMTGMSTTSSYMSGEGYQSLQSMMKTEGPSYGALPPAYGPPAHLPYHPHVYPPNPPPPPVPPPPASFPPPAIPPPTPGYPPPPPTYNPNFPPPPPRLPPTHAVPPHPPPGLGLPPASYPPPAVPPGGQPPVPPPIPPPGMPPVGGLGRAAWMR
CDK12/CycK enzyme, sequence (Q9NYV4 whole entry, species assumed): as the sequence (Q9NYV4 whole entry, species assumed) above
CDK12/CycK enzyme, sequence (O75909 whole entry partner, species assumed): as the sequence (O75909 whole entry partner, species assumed) above

Broadly, the inhibition is the drop in the measured response relative to a control, in per cent. Turning to `COc1ncc(-c2cnc(N(C(=O)NCc3ccccc3)[C@H]3CC[C@H](Nc4ncc(C(F)(F)F)c(OC5COC5)n4)CC3)cn2)cn1` [Example 612, 3-benzyl-1-(5-(2-methoxypyrimidin-5-yl)pyrazin-2-yl)-1-(trans-4-((4-(oxetan-3-yloxy)-5-(trifluoromethyl)pyrimidin-2-yl)amino)cyclohexyl)urea], the inhibition at 1 µM in the test on A2780 cells turned out to be 97%; at CDK12/CycK complex [1], 100%. Further, the “T/C (%)” value in test [2] is recorded as −22%.
For the compound `COc1ncc(-c2ccc(N(C(=O)NCc3ccccn3)[C@H]3CC[C@H](Nc4ncc(C(F)(F)F)c(OC5COC5)n4)CC3)nc2)cn1` [Example 610, 1-(5-(2-methoxypyrimidin-5-yl)pyridin-2-yl)-1-(trans-4-((4-(oxetan-3-yloxy)-5-(trifluoromethyl)pyrimidin-2-yl)amino)cyclohexyl)-3-(pyridin-2-ylmethyl)urea], the inhibition at 1 µM against CDK12/CycK enzyme was 99%; with A2780 cells, 98%; on CDK12/CycK complex [3], 103%; in test [4], 49%.
For the compound `Cn1cc(-c2cnc(N(C(=O)NCc3ccccc3)[C@H]3CC[C@H](Nc4ncc(C#N)c(NC5COC5)n4)CC3)nc2)cn1` [Example 575, 3-benzyl-1-(trans-4-((5-cyano-4-(oxetan-3-ylamino)pyrimidin-2-yl)amino)cyclohexyl)-1-(5-(1-methyl-1H-pyrazol-4-yl)pyrimidin-2-yl)urea], the inhibition at 1 µM came out at 97% against CDK12/CycK enzyme, 99% in the test on A2780 cells, 101% at CDK12/CycK complex [3] and 63% in test [4].
